Columns and labels:
Type in all cases: cell-based
Conditions in all cases: compounds at 50 nM and 500 nM
[1] = target: T1, IKZF3 (Homo sapiens, UniProt Q96SW2+Q9UKT9); test: Western blot degradation of IKZF3 in hPBMCs (24 h)
T1 construct: The supernatant was aspirated as the extracted total cell protein; endogenous in cells; host or cells: human peripheral blood mononuclear cells (hPBMCs)
Protocol: (§1) Conventional Western blot assay was performed to evaluate the effects of the compounds of the present disclosure on the expression of target proteins in cells. • (1) Cell Seeding and Protein Harvesting: Human peripheral blood mononuclear cells (hPBMCs) at a density of 1×10^6 cells/mL were thawed according to the PBMC Recovery Protocol (Milecell Biotechnologies Inc, Shanghai). The cells were then treated with the compounds of the present disclosure (including the compounds listed in Table 1, and the Examples 1-498 compounds) at concentrations of 50 nM and 500 nM. Controls included a negative control (DMSO) and a positive control (the commercial immunomodulatory drug lenalidomide), both processed following the identical experimental protocol as the compounds of the present disclosure. After 24 hours of compounds treatment, cells were harvested and lysed in RIPA protein lysate containing protease inhibitors on ice for 30 min, followed by centrifugation. The supernatant was aspirated as the extracted total cell protein. The protein concentration of the supernatant was determined using the conventional BCA (Bicinchoninic Acid) assay. • (2) To the collected supernatant, 5×SDS sample loading buffer was added, followed by denaturation at 95 °C for 5 minutes. The denatured samples were then separated by SDS-PAGE electrophoresis on a polyacrylamide gel. Proteins were transferred to a nitrocellulose membrane (0.45 μm NC membrane), blocked with blocking buffer at room temperature for 1 hour, and subjected to antibody incubation and development procedures according to the antibody manufacturer's instructions (Cell Signaling Technology).
(§2) Half-Maximal Degradation Concentration value (the drug concentration required for degrading proteins by 50%, abbreviated as DC50) reads method: comparing the grayscale values of Western blot bands from drug-treated samples with those from blank DMSO-treated controls, and identifying the drug concentration range at which the grayscale value is half that of the DMSO-treated control bands.
(§3) DC50 values can be calculated using ImageJ software to measure grayscale values of Western blot bands from drug-treated samples. The concentration-response curve is fitted to estimate the drug concentration corresponding to half the grayscale value.
(§4) Target protein remaining (%) refers to the percentage of target protein remaining in cells after treatment with protein degrader compounds.
(§5) Calculation method for target protein remaining (%): Use ImageJ software to measure grayscale values of Western blot bands from drug (protein degrader)-treated samples. The grayscale value of drug-treated bands is divided by that of internal control protein bands, and the resulting quotient is normalized to obtain the relative percentage of remaining target protein after protein degrader treatment.
(§6) Target protein degradation rate (%)=1−target protein remaining (%).

[2] = target: T2, CK1α (Homo sapiens, UniProt P48729+Q96SW2); test: Western blot degradation of CK1α in hPBMCs (24 h)
T2 construct: The supernatant was aspirated as the extracted total cell protein; endogenous in cells; host or cells: human peripheral blood mononuclear cells (hPBMCs)
Protocol: as §1, §2, §3, §4, §5, §6

[3] = target: T3, IKZF1 (Homo sapiens, UniProt Q13422+Q96SW2); test: Western blot degradation of IKZF1 in hPBMCs (24 h)
T3 construct: The supernatant was aspirated as the extracted total cell protein; endogenous in cells; host or cells: human peripheral blood mononuclear cells (hPBMCs)
Protocol: as §1, §2, §3, §4, §5, §6

[4] = target: T4, IKZF2 (Homo sapiens, UniProt Q96SW2+Q9UKS7); test: Western blot degradation of IKZF2 in hPBMCs (24 h)
T4 construct: The supernatant was aspirated as the extracted total cell protein; endogenous in cells; host or cells: human peripheral blood mononuclear cells (hPBMCs)
Protocol: as §1, §2, §3, §4, §5, §6

[5] = target: T5, GSPT1 (Homo sapiens, UniProt P15170+Q96SW2); test: Western blot degradation of GSPT1 in hPBMCs (24 h)
T5 construct: The supernatant was aspirated as the extracted total cell protein; endogenous in cells; host or cells: human peripheral blood mononuclear cells (hPBMCs)
Protocol: as §1, §2, §3, §4, §5, §6

[6] = target: T6, WEE1 (Homo sapiens, UniProt P30291+Q96SW2); test: Western blot degradation of WEE1 in hPBMCs (24 h)
T6 construct: The supernatant was aspirated as the extracted total cell protein; endogenous in cells; host or cells: human peripheral blood mononuclear cells (hPBMCs)
Protocol: as §1, §2, §3, §4, §5, §6

T2 sequence (P48729 whole entry): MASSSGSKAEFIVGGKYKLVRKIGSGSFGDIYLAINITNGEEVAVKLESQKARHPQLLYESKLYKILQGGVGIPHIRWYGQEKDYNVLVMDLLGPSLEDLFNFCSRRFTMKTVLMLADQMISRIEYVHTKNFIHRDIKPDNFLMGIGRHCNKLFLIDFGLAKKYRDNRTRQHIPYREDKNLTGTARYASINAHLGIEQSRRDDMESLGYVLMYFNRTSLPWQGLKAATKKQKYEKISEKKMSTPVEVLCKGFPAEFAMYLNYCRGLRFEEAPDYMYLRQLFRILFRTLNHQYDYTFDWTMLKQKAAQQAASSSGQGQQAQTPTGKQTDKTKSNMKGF
T2 sequence (Q96SW2 whole entry): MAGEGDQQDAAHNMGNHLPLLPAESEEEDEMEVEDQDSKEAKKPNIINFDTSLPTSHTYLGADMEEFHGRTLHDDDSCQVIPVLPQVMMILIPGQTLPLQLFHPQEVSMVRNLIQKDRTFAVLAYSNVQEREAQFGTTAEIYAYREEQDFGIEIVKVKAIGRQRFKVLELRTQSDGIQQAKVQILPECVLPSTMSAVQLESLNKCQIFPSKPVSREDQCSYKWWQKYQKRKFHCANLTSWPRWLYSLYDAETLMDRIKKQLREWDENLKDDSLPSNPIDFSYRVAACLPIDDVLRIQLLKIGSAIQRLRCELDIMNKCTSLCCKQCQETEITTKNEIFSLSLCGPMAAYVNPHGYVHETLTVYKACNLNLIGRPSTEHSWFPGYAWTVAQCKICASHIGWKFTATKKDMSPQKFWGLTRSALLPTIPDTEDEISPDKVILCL
T2 sequence (Q16531 whole entry partner): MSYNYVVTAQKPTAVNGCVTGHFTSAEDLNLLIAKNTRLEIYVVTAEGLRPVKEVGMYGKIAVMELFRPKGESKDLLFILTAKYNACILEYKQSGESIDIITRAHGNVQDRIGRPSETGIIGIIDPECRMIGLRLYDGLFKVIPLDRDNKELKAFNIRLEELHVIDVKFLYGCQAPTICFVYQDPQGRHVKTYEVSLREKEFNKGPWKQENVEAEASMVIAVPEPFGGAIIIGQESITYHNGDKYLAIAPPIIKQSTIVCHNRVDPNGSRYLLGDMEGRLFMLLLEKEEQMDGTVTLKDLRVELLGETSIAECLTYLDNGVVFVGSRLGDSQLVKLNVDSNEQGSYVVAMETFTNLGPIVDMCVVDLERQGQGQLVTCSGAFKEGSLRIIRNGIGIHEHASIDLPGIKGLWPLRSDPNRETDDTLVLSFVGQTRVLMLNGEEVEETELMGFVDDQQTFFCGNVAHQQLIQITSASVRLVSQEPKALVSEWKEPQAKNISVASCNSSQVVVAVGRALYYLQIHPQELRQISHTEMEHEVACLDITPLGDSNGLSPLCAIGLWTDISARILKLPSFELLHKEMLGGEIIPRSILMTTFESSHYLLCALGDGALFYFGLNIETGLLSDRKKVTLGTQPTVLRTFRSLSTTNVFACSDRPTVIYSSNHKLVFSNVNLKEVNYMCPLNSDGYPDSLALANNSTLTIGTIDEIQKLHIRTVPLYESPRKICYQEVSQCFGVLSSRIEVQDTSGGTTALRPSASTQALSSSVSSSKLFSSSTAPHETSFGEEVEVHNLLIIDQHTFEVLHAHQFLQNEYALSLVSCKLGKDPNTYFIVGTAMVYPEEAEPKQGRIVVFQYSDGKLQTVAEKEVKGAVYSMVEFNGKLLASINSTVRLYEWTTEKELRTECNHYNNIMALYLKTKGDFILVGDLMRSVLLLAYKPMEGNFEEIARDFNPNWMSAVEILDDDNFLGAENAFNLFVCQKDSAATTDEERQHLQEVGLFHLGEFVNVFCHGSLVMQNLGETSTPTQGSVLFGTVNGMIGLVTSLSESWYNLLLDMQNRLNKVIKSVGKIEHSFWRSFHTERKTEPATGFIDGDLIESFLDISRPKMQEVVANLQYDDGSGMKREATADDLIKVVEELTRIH
T5 sequence (P15170 whole entry): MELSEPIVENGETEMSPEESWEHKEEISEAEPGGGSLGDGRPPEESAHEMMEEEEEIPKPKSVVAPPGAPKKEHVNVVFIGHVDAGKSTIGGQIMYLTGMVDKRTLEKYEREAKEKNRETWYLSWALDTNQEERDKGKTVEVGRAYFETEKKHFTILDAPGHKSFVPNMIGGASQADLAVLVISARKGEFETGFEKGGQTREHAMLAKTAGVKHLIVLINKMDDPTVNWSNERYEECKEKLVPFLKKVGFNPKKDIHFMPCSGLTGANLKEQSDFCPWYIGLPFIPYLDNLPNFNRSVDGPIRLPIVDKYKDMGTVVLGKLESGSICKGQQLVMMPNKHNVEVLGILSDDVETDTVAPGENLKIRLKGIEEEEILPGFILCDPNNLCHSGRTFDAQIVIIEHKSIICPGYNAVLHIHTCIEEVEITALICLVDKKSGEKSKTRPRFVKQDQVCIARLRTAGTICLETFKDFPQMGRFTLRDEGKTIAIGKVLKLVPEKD
T5 sequence (Q96SW2 whole entry): as the sequence (Q96SW2 whole entry) above
T5 sequence (Q16531 whole entry partner): as the sequence (Q16531 whole entry partner) above
T6 sequence (P30291 whole entry): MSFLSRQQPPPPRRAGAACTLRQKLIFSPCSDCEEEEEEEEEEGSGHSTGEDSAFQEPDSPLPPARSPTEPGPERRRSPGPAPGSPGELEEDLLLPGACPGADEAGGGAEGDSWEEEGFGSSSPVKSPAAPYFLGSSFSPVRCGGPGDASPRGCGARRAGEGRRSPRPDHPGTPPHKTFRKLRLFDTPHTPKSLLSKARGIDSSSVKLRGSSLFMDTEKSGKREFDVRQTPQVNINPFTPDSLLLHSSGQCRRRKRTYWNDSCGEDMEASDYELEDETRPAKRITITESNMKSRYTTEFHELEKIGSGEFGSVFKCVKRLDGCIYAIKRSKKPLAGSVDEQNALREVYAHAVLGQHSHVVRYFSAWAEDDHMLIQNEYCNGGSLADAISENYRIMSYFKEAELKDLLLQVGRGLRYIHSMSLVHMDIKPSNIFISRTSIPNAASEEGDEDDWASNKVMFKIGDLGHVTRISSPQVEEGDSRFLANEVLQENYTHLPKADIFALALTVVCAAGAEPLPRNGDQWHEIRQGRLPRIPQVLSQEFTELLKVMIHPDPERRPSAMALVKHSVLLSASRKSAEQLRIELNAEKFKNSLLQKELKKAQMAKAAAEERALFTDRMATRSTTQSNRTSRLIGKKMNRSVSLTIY
T6 sequence (Q96SW2 whole entry): as the sequence (Q96SW2 whole entry) above
T6 sequence (Q16531 whole entry partner): as the sequence (Q16531 whole entry partner) above
T3 sequence (Q13422 whole entry): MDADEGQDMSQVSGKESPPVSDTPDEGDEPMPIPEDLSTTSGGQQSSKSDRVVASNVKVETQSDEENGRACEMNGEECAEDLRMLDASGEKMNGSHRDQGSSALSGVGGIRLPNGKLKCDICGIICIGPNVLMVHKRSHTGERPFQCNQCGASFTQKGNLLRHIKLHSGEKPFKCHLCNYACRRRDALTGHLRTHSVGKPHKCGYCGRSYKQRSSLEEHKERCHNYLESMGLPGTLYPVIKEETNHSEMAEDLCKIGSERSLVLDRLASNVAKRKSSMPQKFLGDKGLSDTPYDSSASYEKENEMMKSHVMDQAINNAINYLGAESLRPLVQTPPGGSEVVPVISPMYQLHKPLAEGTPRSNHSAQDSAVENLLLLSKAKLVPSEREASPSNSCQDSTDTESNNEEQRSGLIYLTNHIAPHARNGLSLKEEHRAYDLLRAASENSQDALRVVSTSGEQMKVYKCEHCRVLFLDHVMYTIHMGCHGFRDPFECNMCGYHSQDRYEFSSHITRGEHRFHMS
T3 sequence (Q96SW2 whole entry): as the sequence (Q96SW2 whole entry) above
T3 sequence (Q16531 whole entry partner): as the sequence (Q16531 whole entry partner) above
T4 sequence (Q9UKS7 whole entry): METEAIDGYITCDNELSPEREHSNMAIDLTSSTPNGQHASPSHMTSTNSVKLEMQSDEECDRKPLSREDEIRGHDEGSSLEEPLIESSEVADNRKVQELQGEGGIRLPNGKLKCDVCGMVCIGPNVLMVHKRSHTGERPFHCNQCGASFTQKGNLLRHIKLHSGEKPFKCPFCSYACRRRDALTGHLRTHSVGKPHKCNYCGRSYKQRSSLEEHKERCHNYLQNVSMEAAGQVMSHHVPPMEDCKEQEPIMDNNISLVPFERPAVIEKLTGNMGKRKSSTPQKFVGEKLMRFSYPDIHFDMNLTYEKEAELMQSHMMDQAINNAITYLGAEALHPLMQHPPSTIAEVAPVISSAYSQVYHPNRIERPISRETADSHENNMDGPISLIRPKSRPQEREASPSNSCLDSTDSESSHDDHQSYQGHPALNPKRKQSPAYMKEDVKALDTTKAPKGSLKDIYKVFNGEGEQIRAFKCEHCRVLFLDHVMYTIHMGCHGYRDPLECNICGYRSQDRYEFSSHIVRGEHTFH
T4 sequence (Q96SW2 whole entry): as the sequence (Q96SW2 whole entry) above
T4 sequence (Q16531 whole entry partner): as the sequence (Q16531 whole entry partner) above

SMILES	IKZF3 substrate protein remaining % [1]	CK1α substrate protein remaining % [2]	IKZF1 substrate protein remaining % [3]	IKZF2 substrate protein remaining % [4]	GSPT1 substrate protein remaining % [5]	WEE1 substrate protein remaining % [6]
O=C1CCN(N2Cc3cc(CN4CCN(c5ncccc5C(F)(F)F)CC4)ccc3C2=O)C(=O)N1 [GT-05174, 1-(1-oxo-5-((4-(3-(trifluoromethyl)pyridin-2-yl)piperazin-1-yl)methyl)isoindolin-2-yl)dihydropyrimidine-2,4(1H,3H)-dione]	B (80%< substrate protein remaining % ≤100%)	B (80%< substrate protein remaining % ≤100%)	B (80%< substrate protein remaining % ≤100%)			
O=C1CCN(N2Cc3cc(CN4CCN(c5ccc(C(F)(F)F)cn5)CC4)ccc3C2=O)C(=O)N1 [GT-05176, 1-(1-oxo-5-((4-(5-(trifluoromethyl)pyridin-2-yl)piperazin-1-yl)methyl)isoindolin-2-yl)dihydropyrimidine-2,4(1H,3H)-dione]		B (80%< substrate protein remaining % ≤100%)	B (80%< substrate protein remaining % ≤100%)	B (80%< substrate protein remaining % ≤100%)		
O=C1CCN(N2C(=O)c3ccc(CN4CCN(c5ccccn5)CC4)cc3C2=O)C(=O)N1 [GT-05351, 2-(2,4-dioxotetrahydropyrimidin-1(2H)-yl)-5-((4-(pyridin-2-yl)piperazin-1-yl)methyl)isoindoline-1,3-dione]	B (80%< substrate protein remaining % ≤100%)	B (80%< substrate protein remaining % ≤100%)	B (80%< substrate protein remaining % ≤100%)	A (0% ≤ substrate protein remaining % ≤80%)		
O=C1CCN(N2C(=O)c3ccc(CN4CCN(c5cccc(Cl)n5)CC4)cc3C2=O)C(=O)N1 [GT-05353, 5-((4-(6-chloropyridin-2-yl)piperazin-1-yl)methyl)-2-(2,4-dioxotetrahydropyrimidin-1(2H)-yl)isoindoline-1,3-dione]	B (80%< substrate protein remaining % ≤100%)	B (80%< substrate protein remaining % ≤100%)	B (80%< substrate protein remaining % ≤100%)	B (80%< substrate protein remaining % ≤100%)	A (0% ≤ substrate protein remaining % ≤80%)	
O=C1CCN(N2C(=O)c3ccc(CN4CCN(c5cc(Cl)ccn5)CC4)cc3C2=O)C(=O)N1 [GT-05354, 5-((4-(4-chloropyridin-2-yl)piperazin-1-yl)methyl)-2-(2,4-dioxotetrahydropyrimidin-1(2H)-yl)isoindoline-1,3-dione]		B (80%< substrate protein remaining % ≤100%)	B (80%< substrate protein remaining % ≤100%)		A (0% ≤ substrate protein remaining % ≤80%)	
O=C1CCN(N2C(=O)c3ccc(CN4CCN(c5ncccc5F)CC4)cc3C2=O)C(=O)N1 [GT-05355, 2-(2,4-dioxotetrahydropyrimidin-1(2H)-yl)-5-((4-(3-fluoropyridin-2-yl)piperazin-1-yl)methyl)isoindoline-1,3-dione]	B (80%< substrate protein remaining % ≤100%)	B (80%< substrate protein remaining % ≤100%)	B (80%< substrate protein remaining % ≤100%)		A (0% ≤ substrate protein remaining % ≤80%)	B (80%< substrate protein remaining % ≤100%)
O=C1CCN(N2Cc3cc(CN4CCN(c5ncc(Cl)cc5Cl)CC4)ccc3C2=O)C(=O)N1 [GT-05356, 1-(5-((4-(3,5-dichloropyridin-2-yl)piperazin-1-yl)methyl)-1-oxoisoindolin-2-yl)dihydropyrimidine-2,4(1H,3H)-dione]	B (80%< substrate protein remaining % ≤100%)	B (80%< substrate protein remaining % ≤100%)	B (80%< substrate protein remaining % ≤100%)			
O=C1CCN(N2Cc3cc(CN4CCN(c5nccc(F)c5F)CC4)ccc3C2=O)C(=O)N1 [GT-05357, 1-(5-((4-(3,4-difluoropyridin-2-yl)piperazin-1-yl)methyl)-1-oxoisoindolin-2-yl)dihydropyrimidine-2,4(1H,3H)-dione]	B (80%< substrate protein remaining % ≤100%)	B (80%< substrate protein remaining % ≤100%)	B (80%< substrate protein remaining % ≤100%)	B (80%< substrate protein remaining % ≤100%)		
O=C1CCN(N2Cc3cc(CN4CCN(c5nccc(I)c5F)CC4)ccc3C2=O)C(=O)N1 [GT-05406, 1-(5-((4-(3-fluoro-4-iodopyridin-2-yl)piperazin-1-yl)methyl)-1-oxoisoindolin-2-yl)dihydropyrimidine-2,4(1H,3H)-dione]	B (80%< substrate protein remaining % ≤100%)	B (80%< substrate protein remaining % ≤100%)	B (80%< substrate protein remaining % ≤100%)		A (0% ≤ substrate protein remaining % ≤80%)	
O=C1CCN(N2Cc3cc(CN4CCN(c5nccc(Cl)c5Br)CC4)ccc3C2=O)C(=O)N1 [GT-05432, 1-(5-((4-(3-bromo-4-chloropyridin-2-yl)piperazin-1-yl)methyl)-1-oxoisoindolin-2-yl)dihydropyrimidine-2,4(1H,3H)-dione]	B (80%< substrate protein remaining % ≤100%)	B (80%< substrate protein remaining % ≤100%)	B (80%< substrate protein remaining % ≤100%)	B (80%< substrate protein remaining % ≤100%)		A (0% ≤ substrate protein remaining % ≤80%)
O=C1CCN(N2Cc3cc(CN4CCN(c5ncc(C(F)(F)F)cc5Cl)CC4)ccc3C2=O)C(=O)N1 [GT-05433, 1-(5-((4-(3-chloro-5-(trifluoromethyl)pyridin-2-yl)piperazin-1-yl)methyl)-1-oxoisoindolin-2-yl)dihydropyrimidine-2,4(1H,3H)-dione]	B (80%< substrate protein remaining % ≤100%)	B (80%< substrate protein remaining % ≤100%)	B (80%< substrate protein remaining % ≤100%)		A (0% ≤ substrate protein remaining % ≤80%)	A (0% ≤ substrate protein remaining % ≤80%)
O=C1CCN(N2Cc3cc(CN4CCN(c5cccnc5)CC4)ccc3C2=O)C(=O)N1 [GT-05434, 1-(1-oxo-5-((4-(pyridin-3-yl)piperazin-1-yl)methyl)isoindolin-2-yl)dihydropyrimidine-2,4(1H,3H)-dione]	B (80%< substrate protein remaining % ≤100%)		B (80%< substrate protein remaining % ≤100%)		A (0% ≤ substrate protein remaining % ≤80%)	A (0% ≤ substrate protein remaining % ≤80%)
O=C1CCN(N2Cc3cc(CN4CCN(c5ccncc5Br)CC4)ccc3C2=O)C(=O)N1 [GT-05439, 1-(5-((4-(3-bromopyridin-4-yl)piperazin-1-yl)methyl)-1-oxoisoindolin-2-yl)dihydropyrimidine-2,4(1H,3H)-dione]			B (80%< substrate protein remaining % ≤100%)	B (80%< substrate protein remaining % ≤100%)		A (0% ≤ substrate protein remaining % ≤80%)
